Data reported in the NIST ThermoML archive (doi:10.1016/j.jct.2008.08.011).

Experiment: osmotic coefficient (dimensionless); mn = molality of the nth substance listed, in mol/kg
Settings: 101 kPa, Liquid, Knauer K-7000 vapour pressure osmometer

CCn1cc[n+](C)c1.[Cl-] [1-ethyl-3-methylimidazolium chloride] + O
osmotic coefficient
Settings	313.15 K	333.15 K
m1 = 0.1847	0.97	0.936
m1 = 0.3033	0.949	0.918
m1 = 0.3896	0.941	0.896
m1 = 0.5094	0.923	0.865
m1 = 0.7105	0.895	0.847
m1 = 1.047	0.861	0.812
m1 = 1.294	0.842	0.801
m1 = 1.678	0.835	0.79
m1 = 2.113	0.831	0.784
m1 = 2.49	0.829	0.788
m1 = 2.947	0.844	0.797
m1 = 3.237	0.852	0.809
m1 = 3.722	0.885	0.831
m1 = 4.113	0.921	0.855

CCOS(=O)(=O)[O-].CC[n+]1cccc(C)c1 [1-ethyl-3-methylpyridinium ethylsulfate] + O
osmotic coefficient
Settings	313.15 K	333.15 K
m1 = 0.1419	0.956	0.948
m1 = 0.2108	0.927	0.925
m1 = 0.3168	0.897	0.887
m1 = 0.3829	0.873	0.864
m1 = 0.5036	0.846	0.836
m1 = 0.6837	0.828	0.811
m1 = 1.034	0.813	0.784
m1 = 1.326	0.808	0.782
m1 = 1.726	0.807	0.782
m1 = 2.11	0.813	0.792
m1 = 2.501	0.826	0.802
m1 = 2.892	0.843	0.809
m1 = 3.303	0.859	0.817

CCCCCCn1cc[n+](C)c1.[Cl-] [1-hexyl-3-methylimidazolium chloride] + CCO
osmotic coefficient
Settings	313.15 K	333.15 K
m1 = 0.0583	0.955	0.742
m1 = 0.0975	0.92	0.714
m1 = 0.4274	0.735	0.608
m1 = 0.6999	0.695	0.584
m1 = 1.014	0.677	0.568
m1 = 1.354	0.662	0.561
m1 = 1.597	0.659	0.558
m1 = 1.924	0.652	0.551
m1 = 2.211	0.648	0.553
m1 = 2.579	0.636	0.544
m1 = 2.859	0.635	0.544
m1 = 3.272	0.628	0.535

CCCCn1cc[n+](C)c1.[Cl-] [1-butyl-3-methylimidazolium chloride] + CCO
osmotic coefficient
Settings	313.15 K	333.15 K
m1 = 0.1278	1.02	0.782
m1 = 0.3749	0.887	0.709
m1 = 0.6198	0.802	0.666
m1 = 0.7747	0.783	0.647
m1 = 1.096	0.742	0.63
m1 = 1.437	0.717	0.613
m1 = 1.904	0.685	0.589
m1 = 2.318	0.68	0.576
m1 = 2.688	0.657	0.566
m1 = 3.018	0.653	0.553
m1 = 3.348	0.66	0.55
m1 = 3.521	0.66	0.548
